Marks after values point to notes of the source that are not given here.
Legend:
[1] = tested on: LPS-treated 3T3-L1 adipocytes; assay: Adiponectin secretion in LPS/3T3-L1 adipocytes; format: cell-based, murine; details: for Maximum adiponectin stimulation / concentration of maximum adiponectin stimulation: 100 ng/ml LPS
[2] = tested on: LPS-stimulated 3T3-L1 adipocytes; assay: IL-6 secretion in LPS/3T3-L1 adipocytes; format: cell-based, murine; details: at the concentration of maximum inhibition, 100 ng LPS/ml; for IL-6 Index: indexed to LPS control
[3] = Non-fasting serum glucose in db/db diabetic mice; format: in vivo
Protocol: The Model—Male, C57BLKS/J m^+/m^+ Lepr^db (db/db) mice were used to assess the potential of the test materials to reduce fasting serum glucose or insulin concentrations. This strain of mice is resistant to leptin by virtue of the absence of a functioning leptin receptor.
Testing Procedure—Test substances were administered daily by gavage in 0.2% Tween-80. Serum was collected from the retroorbital sinus before the initial dose and ninety minutes after the third and final dose. Non-fasting serum glucose was determined enzymatically by the mutarotase/glucose oxidase method and serum insulin was determined by a mouse specific ELISA.
Testing Procedure—Test substances were administered daily by gavage in 0.2% Tween-80. Serum was collected from the retroorbital sinus before the initial dose and ninety minutes after the fifth and final dose. Non-fasting serum glucose was determined enzymatically by the mutarotase/glucose oxidase method and serum insulin was determined by a mouse specific ELISA.

[4] = tested on: TNFα-treated 3T3-L1 adipocytes; assay: Adiponectin secretion from TNFα-treated 3T3-L1 adipocytes; format: cell-based, murine; details: for maximum increase of adiponectin secretion from TNFα control: 10 ng/ml TNFα
Protocol: For two days, the cells were allowed grow to reach confluence. […] (3) 0.5 μM dexamethasone and (4) 10 μg/ml insulin (MDI medium). […] Adiponectin Assay—The adiponectin secreted into the medium was quantified using the Mouse Adiponectin Quantikine® Immunoassay kit with no modifications (R&D Systems, Minneapolis, Minn.). […] Statistical Calculations and Interpretation—All assays were preformed in duplicate. […] Differences among the doses and test agents were determined using the Student's t-test without correction for multiple comparisons; the nominal five percent probability of a type I error was selected.

3T3-L1 adipocytes = assay: Lipogenesis in 3T3-L1 adipocytes (Oil Red O / BODIPY); format: cell-based, murine; details: for adipogenic / lipogenic response: relative to solvent and positive controls
Protocol: Prior to experiments, cells were cultured in DMEM containing 10% FBS-HI added 50 units penicillin/ml and 50 μg streptomycin/ml, and maintained in log phase prior to experimental setup. Cells were grown in a 5% CO2 humidified incubator at 37° C. Components of the pre-confluent medium included (1) 10% FBS/DMEM containing 4.5 g glucose/L; (2) 50 U/ml penicillin; and (3) 50 μg/ml streptomycin. Growth medium was made by adding 50 ml of heat inactivated FBS and 5 ml of penicillin/streptomycin to 500 ml DMEM. This medium was stored at 4° C. Before use, the medium was warmed to 37° C. in a water bath.
3T3-T1 cells were seeded at an initial density of 6×10^4 cells/cm^2 in 24-well plates. For two days, the cells were allowed grow to reach confluence. Following confluence, the cells were forced to differentiate into adipocytes by the addition of differentiation medium; this medium consisted of (1) 10% FBS/DMEM (high glucose); (2) 0.5 mM methylisobutylxanthine; (3) 0.5 μM dexamethasone and (4) 10 μg/ml insulin (MDI medium). After three days, the medium was changed to post-differentiation medium consisting of 10 μg/ml insulin in 10% FBS/DMEM.
Whenever fresh media were added, fresh test material was also added.
Oil Red 0 Staining—Triglyceride content of D6/D7-differentiated 3T3-L1 cells was estimated with Oil Red 0 according to the method of Kasturi and Joshi [Kasturi, R. and Joshi, V. C. […] Monolayer cells were washed with PBS (phosphate buffered saline, Mediatech) and fixed with 10% formaldehyde for ten minutes. Fixed cells were stained with an Oil Red 0 working solution of three parts 0.6% Oil Red O/isopropanol stock solution and two parts water for one hour and the excess stain was washed once with water. The resulting stained oil droplets were extracted from the cells with isopropanol and quantified by spectrophotometric analysis at 540 nm (MEL312e BIO-KINETICS READER, Bio-Tek Instruments, Winooski, Vt.).
Briefly, media were removed and cells were washed once with non-sterile PBS. A stock 1000× BODIPY/DMSO solution was made by dissolving 1 mg BODIPY in 1 ml DMSO (1,000 μg BODIPY/ml). […] One-hundred μl of this working solution (1 μg BODIPY) was added to each well of a 96-well microtiter plate. After 15 min on an orbital shaker (DS-500, VWR Scientific Products, South Plainfield, N.J.) at ambient temperature, the cells were washed with 100 μl PBS followed by the addition of 100 μl PBS for reading for spectrofluorometric determination of BODIPY incorporation into the cells.
Nonpolar lipid incorporation was represented relative to the nonpolar lipid accumulation of fully differentiated cells in the solvent controls.

[5] = Serum cytokine (IL-6, TNF-α) analysis, collagen induced arthritis; format: in vivo, DBA/J mice; details: 10 mg/kg
Protocol: Cytokine analysis—Serum was collected from the mice at the termination of the experiment for cytokine analysis. The volume of sample being low (˜0.2-0.3 ml/mouse), samples from the ten mice were randomly allocated into two pools of five animals each. This was done so to permit repeat analyses; each analysis was performed a minimum of two times. TNF-α and IL-6 were analyzed using mouse specific reagents (R&D Systems, Minneapolis, Minn.) according to the manufacturer's instructions.

[6] = tested on: insulin-resistant 3T3-L1 adipocytes; assay: Adiponectin secretion from insulin-resistant 3T3-L1 adipocytes; format: cell-based, murine; details: 50.0 μg/ml, ratio of the indices (Table 21)
Protocol: 3T3-L1 cells were seeded at an initial density of 1×10^4 cells/cm^2 in 96-well plates. For two days, the cells were allowed grow to reach confluence. Following confluence, the cells were forced to differentiate into adipocytes by the addition of differentiation medium; this medium consisted of (1) 10% FBS/DMEM (high glucose); (2) 0.5 mM methylisobutylxanthine; (3) 0.5 μM dexamethasone and (4) 10 μg/ml insulin (MDI medium). From Day 3 through Day 5, the medium was changed to post-differentiation medium consisting of 10 μg/ml insulin in 10% FBS/DMEM.
Briefly, on Day 6, cells were maintained in serum-free media containing 0.5% bovine serum albumin (BSA) for three hours and then treated with 1 μg insulin/ml plus solvent or insulin plus test material. […] Twenty-four hours later, the supernatant medium was sampled for adiponectin determination.
Adiponectin Assay—The adiponectin secreted into the medium was quantified using the Mouse Adiponectin Quantikine® Immunoassay kit with no modifications (R&D Systems, Minneapolis, Minn.).
Substituting {relative adiponectin secretion/[concentration]} for the independent variable v/[S] and {relative adiponectin secretion} for the dependant variable {v}, produced a relationship of the form y=mx+b. […]

PGE2 biosynthesis = PGE2 biosynthesis in A549 cells stimulated by mite dust allergen; format: cell-based, human; details: 10 μg/ml
From the text: Mite dust allergen isolation—Dermatophagoides farinae is the American house dust mite. D. farinae were raised on a 1:1 ratio of Purina Laboratory Chow (Ralston Purina, Co, St. Louis, Mo.) and Fleischmann's granulated dry yeast (Standard Brands, Inc. New York, N.Y.) at room temperature and 75% humidity. Live mites were aspirated from the culture container as they migrated from the medium, killed by freezing, desiccated and stored at 0% humidity. The allergenic component of the mite dust was extracted with water at ambient temperature. Five-hundred mg of mite powder were added to 5 ml of water (1:10 w/v) in a 15 ml conical centrifuge tube (VWR, Rochester, N.Y.), shaken for one minute and allowed to stand overnight at ambient temperature. The next day, the aqueous phase was filtered using a 0.2 μm disposable syringe filter (Nalgene, Rochester, N.Y.). The filtrate was termed mite dust allergen and used to test for induction of PGE2 biosynthesis in A549 pulmonary epithelial cells.
Cell culture and treatment—The human airway epithelial cell line, A549 (American Type Culture Collection, Bethesda, Md.) was cultured and treated as previously described in Example 6. Mite allergen was added to the culture medium to achieve a final concentration of 1000 ng/ml. Eighteen hours later, the media were sampled for PGE2 determination.

[7] = at the concentration of maximum stimulation

Molecule: CC(=O)Oc1ccccc1C(=O)O [Aspirin, aspirin]
- Maximum adiponectin stimulation [1]: failed to induce adiponectin secretion

Molecule: O=C(O)c1ccccc1O [salicylic acid]
- IL-6 Index [2]: 0.52*
- Maximum adiponectin stimulation [1]: failed to induce adiponectin secretion
- Adiponectin Index ([1]; at the concentration of maximum stimulation, indexed to LPS control): 0.96

Molecule: CN(CCOc1ccc(CC2SC(=O)NC2=O)cc1)c1ccccn1 (centres unmarked) [rosiglitazone]
- Glucose [% Pretreatment] ([3]; 1.0 mg/kg-day by gavage, three days, db/db mice, non-fasting serum): 83.0# % Pretreatment

Molecule: Cc1c(C)c2c(c(C)c1O)CCC(C)(COc1ccc(CC3SC(=O)NC3=O)cc1)O2 (centres unmarked) [Troglitazone, troglitazone]
- maximum increase of adiponectin secretion from TNFα control [4]: 51%
- concentration of maximum adiponectin stimulation [1]: 0.625 µg/mL
- % Stimulation of adiponectin secretion (maximum) [1, 7]: 15%

Molecule: CCc1ccc(CCOc2ccc(CC3SC(=O)NC3=O)cc2)nc1 (centres unmarked) [Pioglitazone, pioglitazone]
- maximum increase of adiponectin secretion from TNFα control [4]: 80%
- Adiponectin Index Observed ([4]; 1.0 μg/ml (Table 26)): 1.80
- IL-6 Index [2]: 0.37*
- concentration of maximum adiponectin stimulation [1]: 1.25 µg/mL
- % Stimulation of adiponectin secretion (maximum) [1, 7]: 12%

Molecule: CN(C)C(=N)N=C(N)N [metformin, reference compound]
- lipogenic index (triglyceride content relative to solvent control) (3T3-L1 adipocytes; Oil Red O, 50 μg/ml): 0.79
- serum glucose relative to controls ([3]; three consecutive days): decreased

Molecule: C[C@]12C=CC(=O)C=C1CC[C@@H]1[C@@H]2[C@@H](O)C[C@@]2(C)[C@H]1CC[C@]2(O)C(=O)CO [prednisolone]
- reduction of serum IL-6 levels [5]: reached a statistical significance

Molecule: CC(C)CCC1=C(O)C(C(=O)C(C)C)=C(O)C(CCC(C)C)(CCC(C)C)C1=O [Hexahydro colupulone, hexahydrocolupulone]
- adipogenic / lipogenic response (3T3-L1 adipocytes): failed to elicit a lipogenic response greater than the solvent controls

Molecule: COc1ccc2c(c1)c(CC(=O)O)c(C)n2C(=O)c1ccc(Cl)cc1 [Indomethacin, indomethacin]
- adipogenic / lipogenic response (3T3-L1 adipocytes): induced lipogenesis
- % Inhibition of IL-6 secretion (maximum) [2]: 53* %
- Maximum adiponectin stimulation [1]: 9%
- % Stimulation of adiponectin secretion (maximum) [1, 7]: 9%

Molecule: CC(C)CCC1=C(O)C(C(=O)C(C)C)=C(O)C(CCC(C)C)(CCC(C)C)C1=O [Hexahydrocolupulone (HHCL)]
- Adiponectin/IL-6 [6]: 0.60#

Molecule: Beta acids
- adipogenic / lipogenic response (3T3-L1 adipocytes): comparable to indomethacin and troglitazone
- Percent PGE2 Inhibition (PGE2 biosynthesis): 83%

Molecule: CC(C)Cc1ccc(C(C)C(=O)O)cc1 (centres unmarked) [ibuprofen]
- concentration of maximum adiponectin stimulation [1]: 0.625 µg/mL
- % Stimulation of adiponectin secretion (maximum) [1, 7]: 22%
